This note sets out measurements from patent US8450527B2, “Amine derivative compounds for treating ophthalmic diseases and disorders” (Acucela Inc., priority 2007, dated 2013).

Structures are written as SMILES. Counter-ions that a name gives are not always drawn.

In the first data set the target is T1, visual cycle isomerase (Bos taurus, UniProt Q28175).
T1 construct: Bovine Retinal Pigment Epithelium (RPE) microsome membranes were the source of a visual cycle isomerase; from tissue; host or cells: bovine retinal pigment epithelium microsome membranes; CRALBP made in E. coli
T1 sequence (Q28175 2-533 limits assumed): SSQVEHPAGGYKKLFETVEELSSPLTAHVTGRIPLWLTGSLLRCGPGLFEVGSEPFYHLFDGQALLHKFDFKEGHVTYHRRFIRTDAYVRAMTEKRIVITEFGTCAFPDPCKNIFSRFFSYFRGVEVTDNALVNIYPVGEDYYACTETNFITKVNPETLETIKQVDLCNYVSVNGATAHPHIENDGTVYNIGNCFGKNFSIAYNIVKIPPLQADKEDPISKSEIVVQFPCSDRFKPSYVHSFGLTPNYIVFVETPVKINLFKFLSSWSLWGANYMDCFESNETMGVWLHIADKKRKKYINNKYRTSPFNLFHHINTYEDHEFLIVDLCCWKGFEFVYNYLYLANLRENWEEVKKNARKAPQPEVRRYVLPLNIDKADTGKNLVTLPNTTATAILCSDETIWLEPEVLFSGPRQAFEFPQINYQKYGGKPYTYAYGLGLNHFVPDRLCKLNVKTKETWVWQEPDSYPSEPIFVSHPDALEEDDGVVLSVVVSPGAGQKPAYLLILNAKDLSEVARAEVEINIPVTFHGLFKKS
Kind of data set: In vitro isomerase inhibition assay, bovine RPE microsome membranes. It is filed as biochemical. Conditions: inhibition of 11-cis retinol formation; values given as ranges. The method, then:
The capability of amine derivative compounds to inhibit the activity of a visual cycle isomerase was determined
Isomerase inhibition reactions were performed essentially as described (Stecher et al., J. Biol. Chem. 274:8577-85 (1999); see also Golczak et al., Proc. Natl. Acad. Sci. USA 102:8162-67 (2005)). Bovine Retinal Pigment Epithelium (RPE) microsome membranes were the source of a visual cycle isomerase.
Bovine RPE microsome membrane extracts were prepared according to methods described (Golczak et al., Proc. Natl. Acad. Sci. USA 102:8162-67 (2005)) and stored at −80° C. Crude RPE microsome extracts were thawed in a 37° C. water bath, and then immediately placed on ice. 50 ml crude RPE microsomes were placed into a 50 ml Teflon-glass homogenizer (Fisher Scientific, catalog no. 0841416M) on ice, powered by a hand-held DeWalt drill, and homogenized ten times upand down on ice under maximum speed. This process was repeated until the crude RPE microsome solution was homogenized. The homogenate was then subjected to centrifugation (50.2 Ti rotor (Beckman, Fullerton, Calif.), 13,000 RPM; 15360 Rcf) for 15 minutes at 4° C. The supernatant was collected and subjected to centrifugation at 42,000 RPM (160,000 Rcf; 50.2 Ti rotor) for 1 hour at 4° C. The supernatant was removed, and the pellets were suspended in 12 ml (final volume) cold 10 mM MOPS buffer, pH 7.0. The resuspended RPE membranes in 5 ml aliquots were homogenized in a glass-to-glass homogenizer (Fisher Scientific, catalog no.K885500-0021) to high homogeneity. Protein concentration was quantified using the BCA protein assay according to the manufacturer's protocol (Pierce, Rockford, Ill.). The homogenized RPE preparations were stored at −80° C.
Recombinant human apo cellular retinaldehyde-binding protein (CRALBP) was cloned and expressed according to standard methods in the molecular biology art (see Crabb et al., Protein Science 7:746-57 (1998); Crabb et al., J. Biol. Chem. 263:18688-92 (1988)). Briefly, total RNA was prepared from confluent ARPE^19 cells (American Type Culture Collection, Manassas, Va.), cDNA was synthesized using an oligo(dT)12-18 primer, and then DNA encoding CRALBP was amplified by two sequential polymerase chain reactions (see Crabb et al., J. Biol. Chem. 263:18688-92 (1988); Intres, et al., J. Biol. Chem. 269:25411-18 (1994); GenBank Accession No. L34219.1). The PCR product was sub-cloned into pTrcHis2-TOPO TA vector according to the manufacturer's protocol (Invitrogen Inc., Carlsbad, Calif.; catalog no. K4400-01), and then the sequence was confirmed according to standard nucleotide sequencing techniques. Recombinant 6×His-tagged human CRALBP was expressed in One Shot TOP 10 chemically competent E. coli cells (Invitrogen), and the recombinant polypeptide was isolated from E. coli cell lysates by nickel affinity chromatography using nickel (Ni) Sepharose XK16-20 columns for HPLC (Amersham Bioscience, Pittsburgh, Pa.; catalog no.17-5268-O2). The purified 6×His-tagged human CRALBP was dialyzed against 10 mM bis-tris-Propane (BTP) and analyzed by SDS-PAGE. The molecular weight of the recombinant human CRALBP was approximately 39 kDal.
Amine derivative compounds and control compounds were reconstituted in ethanol to 0.1 M. Ten-fold serial dilutions (10^−2, 10^−3, 10^−4, 10^−5, 10^−6 M) in ethanol of each compound were prepared for analysis in the isomerase assay.
The isomerase assay was performed in 10 mM bis-tris-propane (BTP) buffer, pH 7.5, 0.5% BSA (diluted in BTP buffer), 1 mM sodium pyrophosphate, 20 μM all-trans retinol (in ethanol), and 6 μM apo-CRALBP. The test compounds (2 μl) (final 1/15 dilution of serial dilution stocks) were added to the above reaction mixture to which RPE microsomes were added. The same volume of ethanol was added to the control reaction (absence of test compound). Bovine RPE microsomes (9 μl) (see above) were then added, and the mixtures transferred to 37° C. to initiate the reaction (total volume=150 μl). […]
With `Cc1cccc(C)c1CCc1cccc(CCCN)c1` [Example 1, 3-(3-(2,6-dimethylphenethyl)phenyl)propan-1-amine], the IC50 fell in the range of 1 to 10 µM.
For the molecule `CCC(O)(CC)CCc1cccc(CCCN)c1` [Example 2, 1-(3-(3-aminopropyl)phenyl)-3-ethylpentan-3-ol], the IC50 was no more than 1 µM.
Regarding `CC(C)(O)CCc1cccc(CCCN)c1` [Example 4, 4-(3-(3-Aminopropyl)phenyl)-2-methylbutan-2-ol], the IC50 is 1 to 10 µM.
As for `COCCCc1cccc(CCCN)c1` [Example 5, 3-(3-(3-Methoxypropyl)phenyl)propan-1-amine], the IC50 lay within 1 to 10 µM.
For the molecule `NCCCc1cccc(CCCO)c1` [Example 6, 3-(3-(3-aminopropyl)phenyl)propan-1-ol], the IC50 fell in the range of 10 to 100 µM.
Molecule `CCCC(O)CCc1cccc(CCCN)c1` (stereo not shown) [Example 8, 1-(3-(3-aminopropyl)phenyl)hexan-3-ol] had an IC50 of 1 to 10 µM.
The same measure, in the same setting: under `NCCOc1cccc(CCCCCCO)c1` [Example 13, 6-(3-(2-aminoethoxy)phenyl)hexan-1-ol] stands no more than 1 µM; under `NCCOc1cccc(CCCC2CCCC2)c1` [Example 14, 2-(3-(3-cyclopentylpropyl)phenoxy)ethanamine], no more than 1 µM.
Same read-out and setting: under `NCCC(O)c1cccc(CCCc2ccccc2)c1` (stereo not shown) [Example 18, 3-amino-1-(3-(3-phenylpropyl)phenyl)propan-1-ol] stands no more than 1 µM; under `NCCCc1cccc(CCc2ccc3ccccc3c2)c1` [Example 21, 3-(3-(2-(naphthalen-2-yl)ethyl)phenyl)propan-1-amine], 10 to 100 µM; under `NCCCc1cccc(CCc2ccccc2)c1` [Example 22, 3-(3-phenethylphenyl)propan-1-amine], 1 to 10 µM.
`NCCCc1cccc(CCCCO)c1` [Example 23, 4-(3-(3-aminopropyl)phenyl)butan-1-ol] showed an IC50 of 10 to 100 µM.
Consider `NCCCc1cccc(CCC2CCCC2)c1` [Example 24, 3-(3-(2-cyclopentylethyl)phenyl)propan-1-amine], for which the IC50 was no more than 1 µM.
`NCCCc1cccc(CCC2CCCCC2)c1` [Example 25, 3-(3-(2-cyclohexylethyl)phenyl)propan-1-amine]: the IC50 was no more than 1 µM.
Consider `NCCCc1cccc(CCCc2ccccc2)c1` [Example 26, 3-(3-(3-phenylpropyl)phenyl)propan-1-amine], for which the IC50 was no more than 1 µM.
`CCCCCCc1cccc(CCCN)c1` [Example 28, 3-(3-hexylphenyl)propan-1-amine] gave a half-maximal inhibitory concentration (IC50) of no more than 1 µM.
The same measure, in the same setting: under `NCCCc1cccc(CCCCCCO)c1` [Example 30, 6-(3-(3-aminopropyl)phenyl)hexan-1-ol] stands no more than 1 µM.
On the same count and under the same terms, under `Cc1ccccc1CCc1cccc(CCCN)c1` [Example 31, 3-(3-(2-methylphenethyl)phenyl)propan-1-amine] stands 1 to 10 µM.
The molecule `NCCCc1cccc(CCc2cccc(-c3ccccc3)c2)c1` [Example 32, 3-(3-(2-(Biphenyl-3-yl)ethyl)phenyl)propan-1-amine] showed an IC50 of 10 to 100 µM.
Take `COCCCCCCc1cccc(CCCN)c1` [Example 33, 3-(3-(6-methoxyhexyl)phenyl)propan-1-amine]: the IC50 is no more than 1 µM.
`CCCCC(CCCC)c1cccc(CCCN)c1` [Example 34] had an IC50 of 1 to 10 µM.
As to `NCCOc1cccc(CCc2cccnc2)c1` [Example 36, 2-(3-(2-(pyridin-3-yl)ethyl)phenoxy)ethanamine], the IC50 fell in the range of 1 to 10 µM.
The molecule `NCCOc1cccc(CCc2ccccn2)c1` [Example 37, 2-(3-(2-(pyridin-2-yl)ethyl)phenoxy)ethanamine] registered an IC50 of 1 to 10 µM.
The molecule `NCCOc1cccc(CCc2cccs2)c1` [Example 38, 2-(3-(2-(thiophen-2-yl)ethyl)phenoxy)ethanamine] displayed a half-maximal inhibitory concentration (IC50) of no more than 1 µM.
With `Cc1cccc(C)c1NC(=O)c1cccc(CCCN)c1` [Example 166, 3-(3-aminopropyl)-N-(2,6-dimethylphenyl)benzamide], the IC50 is 100 to 1000 µM.

Tested on in a further data set: not given
Experiment: not given
Settings: not given
`Cc1cccc(C)c1CCc1cccc(CCCN)c1` (as salt: hydrochloride) [Example 1, 3-(3-(2,6-dimethylphenethyl)phenyl)propan-1-amine] came in with a melting point of 106 to 108 °C.

A further data set concerns retinoid nuclear receptors (RAR and RxR). Kind of data set: Retinoid nuclear receptor activity.
Settings: not given
On to `C/C(=C\c1ccc(C(=O)O)cc1)c1ccc2c(c1)C(C)(C)CCC2(C)C` [TTNPB, E-4-[2-(5,6,7,8-tetrahydro-5,5,8,8-tetramethyl-2-naphthylenyl)-1-propenyl]benzoic acid, reference compound], for which the “effects on retinoid nuclear receptors (RAR and RxR)” value is recorded as “activated”.
As for `CC1=C(/C=C/C(C)=C/C=C/C(C)=C/C(=O)O)C(C)(C)CCC1` [at-RA, All-trans-retinoic acid, reference compound], the “effects on retinoid nuclear receptors (RAR and RxR)” value is given as “activated”.
